Values of other authors as cited in PubChem BioAssay AID1259409 (Chemical Carcinogenesis Research Information System (CCRIS), 2018).
“And” between values parts separate entries of the source, which are not always exact repeats. Equal values may be shown once.

System: rodent chemically induced tumor inhibition, incidence and multiplicity
Test: CCRIS tumor inhibitor studies

## S=C=NCCc1ccccc1
Carcinogen: 4-(N-NITROSOMETHYLAMINO)-1-(3-PYRIDYL)-1-BUTANONE, 64091-91-4, Dose [Inhibitor]: 0, 3 UMOL/G/DIET BEGINNING 1 WK PRIOR TO CARCINOGEN TREATMENT AND CONTINUING FOR 21 WK (STUDY DURATION: 104 WK), Route [Inhibitor]: ORAL, Species: RAT, Strain/Sex: F344/MALE, Target Tissue: Type of Lesion: NASAL CAVITY: BENIGN TUMOR, Dose [Carcinogen]: 1.76 MG/KG 3/WK FOR 20 WK, Promoter: NONE USED
  tumour outcome (control, treated, inhibition, significance): 8/40 (20%), 6/40 (15%), 25%, not calculated
Carcinogen: 4-(N-NITROSOMETHYLAMINO)-1-(3-PYRIDYL)-1-BUTANONE, 64091-91-4, Dose [Inhibitor]: 0, 3 UMOL/G/DIET BEGINNING 1 WK PRIOR TO CARCINOGEN TREATMENT AND CONTINUING FOR 21 WK (STUDY DURATION: 104 WK), Route [Inhibitor]: ORAL, Species: RAT, Strain/Sex: F344/MALE, Target Tissue: Type of Lesion: NASAL CAVITY: SQUAMOUS-CELL CARCINOMA, Dose [Carcinogen]: 1.76 MG/KG 3/WK FOR 20 WK, Promoter: NONE USED
  tumour outcome (control, treated, inhibition, significance): 3/40 (8%), 1/40 (3%), 63%, not calculated
Carcinogen: 4-(N-NITROSOMETHYLAMINO)-1-(3-PYRIDYL)-1-BUTANONE, 64091-91-4, Dose [Inhibitor]: 0, 5 UMOL/D FOR 4 CONSECUTIVE DAYS (STUDY DURATION: 16.5 WK), Route [Inhibitor]: GAVAGE, Species: MOUSE, Strain/Sex: STRAIN-A/FEMALE, Target Tissue: Type of Lesion: LUNG: ADENOMA, Dose [Carcinogen]: 10 UMOL ONCE 2 HR POST LAST AGENT DOSE, Promoter: NONE USED
  tumour outcome (control, treated, inhibition, significance): 100%, 89%, 11%, not calculated and 100%, 93%, 7%, not calculated
Carcinogen: 4-(N-NITROSOMETHYLAMINO)-1-(3-PYRIDYL)-1-BUTANONE, 64091-91-4, Dose [Inhibitor]: 0, 25 UMOL/D FOR 4 CONSECUTIVE DAYS (STUDY DURATION: 16.5 WK), Route [Inhibitor]: GAVAGE, Species: MOUSE, Strain/Sex: STRAIN-A/FEMALE, Target Tissue: Type of Lesion: LUNG: ADENOMA, Dose [Carcinogen]: 10 UMOL ONCE 2 HR POST LAST AGENT DOSE, Promoter: NONE USED
  tumour outcome (control, treated, inhibition, significance): 100%, 30%, 70%, p<0.01
Carcinogen: 7,12-DIMETHYLBENZ[A]ANTHRACENE, 57-97-6, Dose [Inhibitor]: 0, 600 PPM IN DIET FOR DURATION OF STUDY BEGINNING 1 WK PRIOR TO CARCINOGEN DOSE (STUDY DURATION: 107 D), Route [Inhibitor]: ORAL, Species: RAT, Strain/Sex: SPRAGUE-DAWLEY/FEMALE, Target Tissue: Type of Lesion: MAMMARY GLAND: ADENOCARCINOMA, Dose [Carcinogen]: 12 MG ONCE, Promoter: NONE USED
  tumour outcome (control, treated, inhibition, significance): 70%, 85%, -21%, not significant
Carcinogen: 7,12-DIMETHYLBENZ[A]ANTHRACENE, 57-97-6, Dose [Inhibitor]: 0, 1200 PPM IN DIET FOR DURATION OF STUDY BEGINNING 1 WK PRIOR TO CARCINOGEN DOSE (STUDY DURATION: 107 D), Route [Inhibitor]: ORAL, Species: RAT, Strain/Sex: SPRAGUE-DAWLEY/FEMALE, Target Tissue: Type of Lesion: MAMMARY GLAND: ADENOCARCINOMA, Dose [Carcinogen]: 12 MG ONCE, Promoter: NONE USED
  tumour outcome (control, treated, inhibition, significance): 70%, 75%, -7%, not significant
Carcinogen: 7,12-DIMETHYLBENZ[A]ANTHRACENE, 57-97-6, Dose [Inhibitor]: 5.5 MG/G DIET AT AGE 9 WK SIMULTANEOUSLY WITH CARCINOGEN 3/WK FOR 4 WK (STUDY DURATION: 20 WK), Route [Inhibitor]: ORAL, Species: MOUSE, Strain/Sex: ICR/FEMALE, Target Tissue: Type of Lesion: FORESTOMACH: TUMOR, Dose [Carcinogen]: 0.05 MG/G DIET AT AGE 9 WK 3/WK FOR 4 WK, Promoter: NONE USED
  tumour outcome (control, treated, inhibition, significance): 93%, 12%, 87%, p<0.001
Carcinogen: 7,12-DIMETHYLBENZ[A]ANTHRACENE, 57-97-6, Dose [Inhibitor]: 5.5 MG/G DIET AT AGE 9 WK SIMULTANEOUSLY WITH CARCINOGEN 3/WK FOR 4 WK (STUDY DURATION: 20 WK), Route [Inhibitor]: ORAL, Species: MOUSE, Strain/Sex: ICR/FEMALE, Target Tissue: Type of Lesion: LUNG: ADENOMA, Dose [Carcinogen]: 0.05 MG/G DIET AT AGE 9 WK 3/WK FOR 4 WK, Promoter: NONE USED
  tumour outcome (control, treated, inhibition, significance): 100%, 89%, 11%, not significant
Carcinogen: 7,12-DIMETHYLBENZ[A]ANTHRACENE, 57-97-6, Dose [Inhibitor]: 55 MG ONCE 4 HR BEFORE DMBA TREATMENT (STUDY DURATION: 18 WK), Route [Inhibitor]: INTRAGASTRIC, Species: RAT, Strain/Sex: SPRAGUE-DAWLEY/FEMALE, Target Tissue: Type of Lesion: MAMMARY GLAND: TUMOR, Dose [Carcinogen]: 12 MG IN 1 ML OLIVE OIL AT AGE 7 WK, Promoter: NONE USED
  tumour outcome (control, treated, inhibition, significance): 100%, 43%, 57%, p<0.001
Carcinogen: BENZO[A]PYRENE [50-32-8], Dose [Inhibitor]: 0.3 UMOL/G IN DIET FOR 10 WK BEGINNING 1 WK PRIOR TO FIRST CARCINOGEN DOSE (STUDY DURATION: 28 WK), Route [Inhibitor]: ORAL, Species: MOUSE, Strain/Sex: A/J/FEMALE, Target Tissue: Type of Lesion: LUNG: TUMOR, Dose [Carcinogen]: 3 UMOL IN 0.1 ML COTTONSEED OIL 1X/WK FOR 8 WK (STUDY DURATION: 28 WK), Promoter: NONE
  tumour outcome (control, treated, inhibition, significance): 100%, 100%, 0%, not calculated
Carcinogen: BENZO[A]PYRENE [50-32-8], Dose [Inhibitor]: 1 UMOL/G IN DIET FOR 10 WK BEGINNING 1 WK PRIOR TO FIRST CARCINOGEN DOSE (STUDY DURATION: 28 WK), Route [Inhibitor]: ORAL, Species: MOUSE, Strain/Sex: A/J/FEMALE, Target Tissue: Type of Lesion: LUNG: TUMOR, Dose [Carcinogen]: 3 UMOL IN 0.1 ML COTTONSEED OIL 1X/WK FOR 8 WK (STUDY DURATION: 28 WK), Promoter: NONE
  tumour outcome (control, treated, inhibition, significance): 100%, 100%, 0%, not calculated
Carcinogen: BENZO[A]PYRENE [50-32-8], Dose [Inhibitor]: 3 UMOL/G IN DIET FOR 10 WK BEGINNING 1 WK PRIOR TO FIRST CARCINOGEN DOSE (STUDY DURATION: 28 WK), Route [Inhibitor]: ORAL, Species: MOUSE, Strain/Sex: A/J/FEMALE, Target Tissue: Type of Lesion: LUNG: TUMOR, Dose [Carcinogen]: 3 UMOL IN 0.1 ML COTTONSEED OIL 1X/WK FOR 8 WK (STUDY DURATION: 28 WK), Promoter: NONE
  tumour outcome (control, treated, inhibition, significance): 100%, 100%, 0%, not calculated
Carcinogen: BENZO[A]PYRENE, 50-32-8, Dose [Inhibitor]: 0, 5 UMOL IN ACETONE 4 HR PRIOR TO CARCINOGEN DOSE (STUDY DURATION: 20 WK), Route [Inhibitor]: DERMAL, Species: MOUSE, Strain/Sex: STRAIN-A/FEMALE, Target Tissue: Type of Lesion: SKIN: TUMOR, Dose [Carcinogen]: 0.1 UMOL IN ACETONE ONCE, Promoter: 12-O-TETRADECANOYLPHORBOL-13-ACETATE, 16561-29-8
  outcome: 70%, 65%, 7%, not significant at 15 wk; 95%, 85%, 11%, not significant at 20 wk
Carcinogen: BENZO[A]PYRENE, 50-32-8, Dose [Inhibitor]: 0, 6.7 UMOL IN COTTONSEED OIL 15 MIN PRIOR TO CARCINOGEN DOSES 1/2 WK FOR 3 TREATMENTS (STUDY DURATION: 26 WK), Route [Inhibitor]: GAVAGE, Species: MOUSE, Strain/Sex: STRAIN-A/FEMALE, Target Tissue: Type of Lesion: FORESTOMACH: TUMOR, Dose [Carcinogen]: 7.9 UMOL IN COTTONSEED OIL 1/2 WK FOR 3 TREATMENTS, Promoter: NONE USED
  tumour outcome (control, treated, inhibition, significance): 95%, 90%, 5%, not significant
Carcinogen: BENZO[A]PYRENE, 50-32-8, Dose [Inhibitor]: 0, 6.7 UMOL IN COTTONSEED OIL 15 MIN PRIOR TO CARCINOGEN DOSES 1/2 WK FOR 3 TREATMENTS (STUDY DURATION: 26 WK), Route [Inhibitor]: GAVAGE, Species: MOUSE, Strain/Sex: STRAIN-A/FEMALE, Target Tissue: Type of Lesion: LUNG: TUMOR, Dose [Carcinogen]: 7.9 UMOL IN COTTONSEED OIL 1/2 WK FOR 3 TREATMENTS, Promoter: NONE USED
  tumour outcome (control, treated, inhibition, significance): 95%, 90%, 5%, not significant
